# Patent publication KR20130112248A, “피라졸로피리미딘 유도체 화합물, 이를 포함하는 산화질소 생성 억제용 조성물 및 뇌신경 질환 예방 및 치료용 약학적 조성물” (한국과학기술연구원, priority 2012, dated 2013)
# Tested on: NO production in BV-2 cells [NO 생성; BV-2 세포]
# Test: Nitric oxide (NO) quantification (nitrite, Griess reaction) in LPS-activated BV-2 cells
# Type: cell-based
# Conditions: 20 μM, LPS 0.2 ㎍/mL, 24 h co-treatment, nitrite by Griess at 540 nm
row,Compound,NO (% of LPS)
1,"2-(4-(4-플루오로벤질아미노)-6-(메틸티오)-1H-피라졸로[3,4-d]피리미딘-1-일)에틸카바메이트 [화합물 14f]",38.3±1.3 % of LPS
2,"1-(N-t-Boc-아미노에틸)-4-(1-하이드록시에틸)아미노-6-(메틸티오)피라졸로[3,4-d]피리미딘 [화합물 14b]",102±4 % of LPS
3,"N-벤질-1-메틸-6-(메틸티오)피라졸로[3,4-d]피리미딘-4-아민 [화합물 12n]",51±1 % of LPS
4,"N-(2-메톡시벤질)-6-(메틸설포닐)-1-페닐-1H-피라졸로[3,4-d]피리미딘-4-아민 [화합물 23d]",35±7.4 % of LPS

# Same assay, conditions: 20 μM, LPS 0.2 ㎍/mL, 24 h co-treatment, nitrite by Griess at 540 nm, 1440 min
row,Compound,NO (% of LPS)
1,"CSc1nc(N[C@H](C)c2ccccc2)c2cnn(C(C)(C)C)c2n1 [화합물 17g, (R)-1-t-뷰틸-4-(1-페닐에틸)아미노-6-(메틸티오)피라졸로[3,4-d]피리미딘]",42±18 % of LPS
2,"CSc1nc(NC(C)c2ccccc2)c2cnn(Cc3ccccc3)c2n1 (stereo not shown) [화합물 16k, 1-벤질-6-(메틸티오)-N-(1-페닐에틸)-1H-피라졸로[3,4-d]피리미딘-4-아민]",31±0.5 % of LPS
3,"CC(Nc1nc([S+](C)[O-])nc2c1cnn2Cc1ccccc1)c1ccccc1 (stereo not shown) [화합물 22j, 1-벤질-6-(메틸설파이닐)-N-(1-페닐에틸)-1H-피라졸로[3,4-d]피리미딘-4-아민]",70±3.9 % of LPS
4,"CC(Nc1nc([S+](C)[O-])nc2c1cnn2Cc1ccccc1)c1ccccc1 (stereo not shown) [화합물 22h, 1-벤질-6-(메틸설파이닐)-N-(1-페닐에틸)-1H-피라졸로[3,4-d]피리미딘-4-아민]",59±1.4 % of LPS

# Same assay, conditions: Mus musculus, BV-2, 24 h, 20 μM, LPS 0.2 ㎍/mL, 24 h co-treatment, nitrite by Griess at 540 nm
row,Compound,activity at 20 µM
1,"C=CCn1ncc2c(NCc3ccccc3OC)nc(SC)nc21 [화합물 13e, N-(2-메톡시벤질)-1-알릴-6-(메틸티오)-1H-피라졸로[3,4-d]피리미딘-4-아민]",22.4 ± 0.4%
2,"COc1nc(SC)nc2c1cnn2-c1ccccc1 [화합물 15s, 1-페닐-4-메톡시-6-(메틸티오)피라졸로[3,4-d]피리미딘]",93 ± 2%
3,"C=CCn1ncc2c(NCc3ccc(Cl)cc3)nc(SC)nc21 [화합물 13f, N-(4-클로로벤질)-1-알릴-6-(메틸티오)-1H-피라졸로[3,4-d]피리미딘-4-아민]",11 ± 2.9%
4,"CSc1nc(Sc2ccc(Cl)cc2)c2cnn(Cc3ccccc3)c2n1 [화합물 16r, 4-(4-클로로페닐티오)-1-벤질-6-(메틸티오)-1H-피라졸로[3,4-d]피리미딘]",20 ± 1.9%
5,"CS(=O)(=O)c1nc(NCc2ccccc2Cl)c2cnn(-c3ccc(F)cc3)c2n1 [화합물 23j, N-(2-클로로벤질)-1-(4-플루오로페닐)-6-(메틸설포닐)-1H-피라졸로[3,4-d]피리미딘-4-아민]",28 ± 19.3%
6,"C[S+]([O-])c1nc(NCc2ccccc2Cl)c2cnn(-c3ccccc3)c2n1 (stereo not shown) [화합물 22a, N-(2-클로로벤질)-6-(메틸설파이닐)-1-페닐-1H-피라졸로[3,4-d]피리미딘-4-아민]",24 ± 12.9%
7,"CSc1nc(Sc2ccc(F)cc2)c2cnn(Cc3ccccc3)c2n1 [화합물 16u, 4-(4-플루오로페닐티오)-1-벤질-6-(메틸티오)-1H-피라졸로[3,4-d]피리미딘]",28 ± 1.8%
8,"COc1ccc(CNc2nc(S(C)(=O)=O)nc3c2cnn3-c2ccc(C)cc2)cc1 [화합물 23o, N-(4-메톡시벤질)-6-(메틸설포닐)-1-p-톨릴-1H-피라졸로[3,4-d]피리미딘-4-아민]",30 ± 2.4%
9,"Cc1ccc(C(C)Nc2nc(S(C)(=O)=O)nc3c2cnn3-c2ccccc2)cc1 (stereo not shown) [화합물 23g, 6-(메틸설포닐)-1-페닐-N-(1-p-톨릴에틸)-1H-피라졸로[3,4-d]피리미딘-4-아민]",46 ± 3.9%
10,"CSc1nc(NCc2ccccc2Cl)c2cn[nH]c2n1 [6w, N-(2-클로로벤질)-6-(메틸티오)-1H-피라졸로[3,4-d]피리미딘-4-아민]",46 ± 2.9%
11,"COc1ccccc1CNc1nc(SC)nc2c1cnn2-c1ccccc1 [화합물 15v, 1-페닐-4-(2-메톡시벤질)아미노-6-(메틸티오)피라졸로[3,4-d]피리미딘]",41 ± 2%
12,"CSc1nc(NCc2ccccn2)c2cnn(Cc3ccccc3)c2n1 [화합물 16zh, 1-벤질-6-(메틸티오)-N-((피리딘-2-일)메틸)-1H-피라졸로[3,4-d]피리미딘-4-아민]",53 ± 7.2%
13,"CSc1nc(Cl)c2cnn(-c3ccccc3)c2n1 [5e, 1-페닐-4-클로로-6-(메틸티오)피라졸로[3,4-d]피리미딘]",50 ± 7%
14,"COc1ccc(CNc2nc(SC)nc3c2cnn3CCc2cccc(OC)c2)cc1 [화합물 18e, 1-(3-메톡시펜에틸)-N-(4-메톡시벤질)-6-(메틸티오)-1H-피라졸로[3,4-d]피리미딘-4-아민]",44 ± 1.3%
15,"CSc1nc2c(cnn2Cc2ccccc2)c(=S)[nH]1 [9c, 1-벤질-6-(메틸티오)피라졸로[3,4-d]피리미딘-4-티온]",79 ± 5%
16,"CCN(CC)c1nc(SC)nc2c1cnn2-c1ccccc1 [화합물 15w, 1-페닐-4-다이에틸아미노-6-(메틸티오)피라졸로[3,4-d]피리미딘]",79 ± 3%
17,"CSc1nc(NC(C)C2CCCCC2)c2cnn(-c3ccc(C)cc3)c2n1 (stereo not shown) [화합물 21h, N-(1-사이클로헥실에틸)-6-(메틸티오)-1-p-톨릴-1H-피라졸로[3,4-d]피리미딘-4-아민]",73 ± 2.6%
18,"CSc1nc(NC(C)(C)CO)c2cnn(CCNC(=O)OC(C)(C)C)c2n1 [화합물 14h, 2-(4-(1-하이드록시-2-메틸프로판-2-일아미노)-6-(메틸티오)-1H-피라졸로[3,4-d]피리미딘-1-일)에틸카바메이트]",78.9 ± 1.6%
19,"COc1ccccc1CNc1nc([S+](C)[O-])nc2c1cnn2-c1ccc(C)cc1 (stereo not shown) [화합물 22g, N-(2-메톡시벤질)-6-(메틸설파이닐)-1-p-톨릴-1H-피라졸로[3,4-d]피리미딘-4-아민]",42 ± 2.3%
20,"CSc1nc(N[C@H](C)c2ccccc2)c2cn[nH]c2n1 [6k, (R)-4-(1-페닐에틸)아미노-6-(메틸티오)피라졸로[3,4-d]피리미딘]",16 ± 17%
21,"CSc1nc(NCc2ccccn2)c2cnn(C(C)(C)C)c2n1 [화합물 17m, 1-t-뷰틸-6-(메틸티오)-N-((피리딘-2-일)메틸)-1H-피라졸로[3,4-d]피리미딘-4-아민]",92 ± 6.6%
22,"C=CCNc1nc(SC)nc2c1c(-c1ccccc1)nn2-c1ccccc1 [화합물 31g, 1-페닐-3-페닐-4-알릴아미노-6-(메틸티오)피라졸로[3,4-d]피리미딘]",71 ± 3%
23,"COc1ccccc1CNc1nc([S+](C)[O-])nc2c1cnn2-c1ccccc1 (stereo not shown) [화합물 22b, N-(2-메톡시벤질)-6-(메틸설파이닐)-1-페닐-1H-피라졸로[3,4-d]피리미딘-4-아민]",28 ± 4.1%

row,Compound,activity at 20 µM
1,"COc1cccc(CNc2nc(SC)nc3c2cnn3-c2ccc(C)cc2)c1 [화합물 21d, N-(3-메톡시벤질)-6-(메틸티오)-1-p-톨릴-1H-피라졸로[3,4-d]피리미딘-4-아민]",42 ± 5.2%
2,"CSc1nc(N(CCO)CCO)c2cnn(C)c2n1 [12c, 1-메틸-4-비스(1-하이드록시에틸)아미노-6-(메틸티오)피라졸로[3,4-d]피리미딘]",115 ± 6%
3,"C=CCn1ncc2c(NCc3ccccc3)nc(SC)nc21 [화합물 13a, 1-알릴-4-벤질아미노-6-(메틸티오)피라졸로[3,4-d]피리미딘]",15 ± 25%
4,"CSc1nc2c(cnn2C(C)(C)C)c(=S)[nH]1 [9d, 1-t-뷰틸-6-(메틸티오)피라졸로[3,4-d]피리미딘-4-티온]",108 ± 5%
5,"Cc1ccc(-n2ncc3c(NCc4ccccc4C)nc(S(C)(=O)=O)nc32)cc1 [화합물 23n, N-(2-메틸벤질)-1-(4-메틸페닐)-6-(메틸설포닐)-1-p-톨릴-1H-피라졸로[3,4-d]피리미딘-4-아민]",82 ± 3.1%
6,"CSc1nc(NC(c2ccccc2)c2ccc(Cl)cc2)c2cnn(Cc3ccccc3)c2n1 (stereo not shown) [화합물 16y, 1-벤질-N-((4-클로로페닐)(페닐)메틸)-6-(메틸티오)-1H-피라졸로[3,4-d]피리미딘-4-아민]",41 ± 0.9%
7,"CCCCNc1nc([S+](C)[O-])nc2c1cnn2-c1ccccc1 (stereo not shown) [화합물 22d, N-뷰틸-6-(메틸설파이닐)-1-페닐-1H-피라졸로[3,4-d]피리미딘-4-아민]",46 ± 8.3%
8,"CSc1nc(N[C@H](C)c2ccccc2)c2cnn(C(C)(C)C)c2n1 [화합물 17b, (R)-1-t-뷰틸-4-(1-페닐에틸)아미노-6-(메틸티오)피라졸로[3,4-d]피리미딘]",61 ± 1%
9,"C=CCn1ncc2c(NCc3ccccc3Cl)nc(SC)nc21 [화합물 13o, N-(2-클로로벤질)-1-알릴-6-(메틸티오)-1H-피라졸로[3,4-d]피리미딘-4-아민]",17.5 ± 1.5%
10,"COc1cccc(CNc2nc(SC)nc3c2cnn3C)c1 [화합물 12k, 1-메틸-4-(3-메톡시벤질)아미노-6-(메틸티오)피라졸로[3,4-d]피리미딘]",94 ± 5%
11,"COc1ccc(CNc2nc(SC)nc3c2cnn3CCNC(=O)OC(C)(C)C)cc1 [화합물 14j, 2-(4-(4-메톡시벤질아미노)-6-(메틸티오)-1H-피라졸로[3,4-d]피리미딘-1-일)에틸카바메이트]",25.8 ± 3%
12,"CSc1nc(SCc2ccccc2Cl)c2cnn(Cc3ccccc3)c2n1 [화합물 16s, 4-(2-클로로벤질티오)-1-벤질-6-(메틸티오)-1H-피라졸로[3,4-d]피리미딘]",66 ± 2.6%
13,"COc1ccccc1CNc1nc(SC)nc2c1cnn2C [화합물 12j, 1-메틸-4-(2-메톡시벤질)아미노-6-(메틸티오)피라졸로[3,4-d]피리미딘]",40 ± 5%
14,"C=CCn1ncc2c(NC(C)(C)CO)nc(SC)nc21 [화합물 13k, 2-(1-알릴-6-(메틸티오)-1H-피라졸로[3,4-d]피리미딘-4-일아미노)-2-메틸프로판-1-올]",15.9 ± 0.6%
15,"CSc1nc(N(CCO)CCO)c2cnn(-c3ccccc3)c2n1 [화합물 15i, 1-페닐-4-비스(1-하이드록시에틸)아미노-6-(메틸티오)피라졸로[3,4-d]피리미딘]",90 ± 3%
16,"CS(=O)(=O)c1nc(NCc2ccccc2Cl)c2cnn(-c3ccccc3)c2n1 [화합물 23b, N-(2-클로로벤질)-6-(메틸설포닐)-1-페닐-1H-피라졸로[3,4-d]피리미딘-4-아민]",93 ± 2%
17,"CSc1nc(NCc2ccc(C)cc2)c2cnn(Cc3ccccc3)c2n1 [화합물 16ze, N-(4-메틸벤질)-1-벤질-6-(메틸티오)-1H-피라졸로[3,4-d]피리미딘-4-아민]",51 ± 3.4%
18,"COc1cccc(CNc2nc(SC)nc3c2cnn3CCNC(=O)OC(C)(C)C)c1 [화합물 14d, 1-(N-t-Boc-아미노에틸)-4-(3-메톡시벤질)아미노-6-(메틸티오)피라졸로[3,4-d]피리미딘]",49 ± 12%
19,"CSc1nc(NCc2ccccc2)c2cnn(C)c2n1 [12a, 1-메틸-4-벤질아미노-6-(메틸티오)피라졸로[3,4-d]피리미딘]",77 ± 2%
20,"CSc1nc(NC(C)c2ccccc2)c2cnn(Cc3ccccc3)c2n1 (stereo not shown) [화합물 16x, 1-벤질-6-(메틸티오)-N-(1-페닐에틸)-1H-피라졸로[3,4-d]피리미딘-4-아민]",34 ± 1.4%
21,"C=CCn1ncc2c(NCc3ccc(F)cc3)nc(SC)nc21 [화합물 13d, 1-알릴-4-(4-플루오로벤질)아미노-6-(메틸티오)피라졸로[3,4-d]피리미딘]",14 ± 39%
22,"CS(=O)(=O)c1nc(NC(c2ccccc2)c2ccc(Cl)cc2)c2cnn(-c3ccccc3)c2n1 (stereo not shown) [화합물 23e, N-((4-클로로페닐)(페닐)메틸)-6-(메틸설포닐)-1-페닐-1H-피라졸로[3,4-d]피리미딘-4-아민]",36 ± 3.6%

# Same assay, conditions: Mus musculus, BV-2, 24 h, 30 μM, LPS 0.2 ㎍/mL, 24 h co-treatment, nitrite by Griess at 540 nm
row,Compound,activity at 30 µM
1,"CSc1ncc2cn[nH]c2n1 [7a, 6-(메틸티오)피라졸로[3,4-d]피리미딘]",79 ± 1%

# Same assay, conditions: Mus musculus, BV-2, 24 h, 50 μM (printed in cell of the 30 μM column), LPS 0.2 ㎍/mL, 24 h co-treatment
row,Compound,activity at 50 µM
1,"CSc1nc(NCc2ccccc2)c2cn[nH]c2n1 [6a, 4-벤질아미노-6-(메틸티오)피라졸로[3,4-d]피리미딘]",35 ± 4%
